Species: Rattus norvegicus
Test: DrugMatrix - Regimen: Daily Repeat
Format: toxicity, organism-based, Sprague-Dawley
Parameters: regimen Daily Repeat, gender Male, age 6-8 weeks
Details: in vivo, po, route oral GAVAGE, vehicle .5 % CMC; for ABSOLUTE BASOPHIL / ABSOLUTE EOSINOPHIL / ABSOLUTE LYMPHOCYTE / ABSOLUTE MONOCYTE / ABSOLUTE SEGMENTED NEUTROPHIL / BASOPHIL / EOSINOPHIL / ERYTHROCYTE COUNT / HEMATOCRIT / HEMOGLOBIN / LEUKOCYTE COUNT / LYMPHOCYTE / MEAN CORPUSCULAR HEMOGLOBIN CONCENTRATION / MEAN CORPUSCULAR VOLUME / MONOCYTE / NEUTROPHIL / NUCLEATED RED BLOOD CELLS / PLATELET COUNT: tissue Blood; for ALANINE AMINOTRANSFERASE / ALBUMIN / ALKALINE PHOSPHATASE / BLOOD UREA NITROGEN / CARBON DIOXIDE / CHLORIDE / CHOLESTEROL / CREATINE PHOSPHOKINASE / CREATININE / GLUCOSE / LACTATE DEHYDROGENASE / LIPASE / PHOSPHORUS / POTASSIUM / SODIUM / TOTAL BILIRUBIN / TOTAL PROTEIN: tissue Plasma
[1] = 0 mg/kg, 72 h, dose level Control, time 3 day
[2] = 0 mg/kg, 120 h, dose level Control, time 5 day
[3] = 60 mg/kg, 72 h, dose level High, time 3 day

Structure (SMILES): CO[C@H]1C[C@@H]2CC[C@@H](C)[C@@](O)(O2)C(=O)C(=O)N2CCCC[C@H]2C(=O)O[C@H]([C@H](C)C[C@@H]2CC[C@@H](O)[C@H](OC)C2)CC(=O)[C@H](C)/C=C(\C)[C@@H](O)[C@@H](OC)C(=O)[C@H](C)C[C@H](C)/C=C/C=C/C=C/1C [SIROLIMUS]
- ABSOLUTE BASOPHIL [1]: 0 CELLS/uL
- ABSOLUTE EOSINOPHIL [1]: 47.67 CELLS/uL
- ABSOLUTE LYMPHOCYTE [1]: 15937.67 CELLS/uL
- ABSOLUTE MONOCYTE [1]: 138.33 CELLS/uL
- ABSOLUTE SEGMENTED NEUTROPHIL [1]: 1443 CELLS/uL
- BASOPHIL [1]: 0%
- EOSINOPHIL [1]: 0.33%
- ERYTHROCYTE COUNT [1]: 5.45 x10E6/uL
- HEMATOCRIT [1]: 34.43%
- HEMOGLOBIN [1]: 13.38 G/DL
- LEUKOCYTE COUNT [1]: 17.57 x10E3/uL
- LYMPHOCYTE [1]: 90.33%
- MEAN CORPUSCULAR HEMOGLOBIN CONCENTRATION [1]: 38.88 G/DL
- MEAN CORPUSCULAR VOLUME [1]: 63.27 fL
- MONOCYTE [1]: 0.83%
- NEUTROPHIL [1]: 8.5%
- NUCLEATED RED BLOOD CELLS [1]: 0 /100WBC
- PLATELET COUNT [1]: 1298 x10E3/uL
- ALANINE AMINOTRANSFERASE [1]: 47.67 u/L
- ALBUMIN [1]: 4.18 G/DL
- ALKALINE PHOSPHATASE [1]: 398.5 u/L
- BLOOD UREA NITROGEN [1]: 16 mg/dL
- CARBON DIOXIDE [1]: 29.17 mmol/L
- CHLORIDE [1]: 98.17 MEQ/L
- CHOLESTEROL [1]: 68.83 mg/dL
- CREATINE PHOSPHOKINASE [1]: 467.33 u/L
- CREATININE [1]: 0.14 mg/dL
- GLUCOSE [1]: 151.67 mg/dL
- LACTATE DEHYDROGENASE [1]: 597.5 u/L
- LIPASE [1]: 9.33 u/L
- PHOSPHORUS [1]: 11.97 mg/dL
- POTASSIUM [1]: 6.43 MEQ/L
- SODIUM [1]: 140.68 MEQ/L
- TOTAL BILIRUBIN [1]: 0.18 mg/dL
- TOTAL PROTEIN [1]: 5.82 G/DL
- ABSOLUTE BASOPHIL [2]: 0 CELLS/uL
- ABSOLUTE EOSINOPHIL [2]: 31 CELLS/uL
- ABSOLUTE LYMPHOCYTE [2]: 14327.83 CELLS/uL
- ABSOLUTE MONOCYTE [2]: 102.83 CELLS/uL
- ABSOLUTE SEGMENTED NEUTROPHIL [2]: 1321.67 CELLS/uL
- BASOPHIL [2]: 0%
- EOSINOPHIL [2]: 0.17%
- ERYTHROCYTE COUNT [2]: 5.79 x10E6/uL
- HEMATOCRIT [2]: 36.1%
- LEUKOCYTE COUNT [2]: 15.78 x10E3/uL
- LYMPHOCYTE [2]: 90.5%
- MEAN CORPUSCULAR HEMOGLOBIN CONCENTRATION [2]: 39.22 G/DL
- MEAN CORPUSCULAR VOLUME [2]: 62.4 fL
- MONOCYTE [2]: 0.67%
- NEUTROPHIL [2]: 8.67%
- NUCLEATED RED BLOOD CELLS [2]: 0.17 /100WBC
- PLATELET COUNT [2]: 1211.67 x10E3/uL
- ALANINE AMINOTRANSFERASE [2]: 49 u/L
- ALBUMIN [2]: 4.27 G/DL
- ALKALINE PHOSPHATASE [2]: 356.67 u/L
- BLOOD UREA NITROGEN [2]: 20.5 mg/dL
- CARBON DIOXIDE [2]: 29.17 mmol/L
- CHLORIDE [2]: 98 MEQ/L
- CHOLESTEROL [2]: 69.83 mg/dL
- CREATINE PHOSPHOKINASE [2]: 312 u/L
- CREATININE [2]: 0.21 mg/dL
- GLUCOSE [2]: 149.83 mg/dL
- LACTATE DEHYDROGENASE [2]: 322 u/L
- LIPASE [2]: 10 u/L
- PHOSPHORUS [2]: 12 mg/dL
- POTASSIUM [2]: 6.75 MEQ/L
- SODIUM [2]: 142.8 MEQ/L
- TOTAL BILIRUBIN [2]: 0.17 mg/dL
- TOTAL PROTEIN [2]: 6.1 G/DL
- ABSOLUTE BASOPHIL [3]: 0 CELLS/uL
- ABSOLUTE EOSINOPHIL [3]: 0 CELLS/uL
- ABSOLUTE LYMPHOCYTE [3]: 11212.33 CELLS/uL
- ABSOLUTE SEGMENTED NEUTROPHIL [3]: 775.67 CELLS/uL
- BASOPHIL [3]: 0%
- EOSINOPHIL [3]: 0%
- ERYTHROCYTE COUNT [3]: 6.32 x10E6/uL
- HEMATOCRIT [3]: 39.93%
- HEMOGLOBIN [3]: 15.57 G/DL
- LEUKOCYTE COUNT [3]: 12.23 x10E3/uL
- LYMPHOCYTE [3]: 91.67%
- MEAN CORPUSCULAR HEMOGLOBIN CONCENTRATION [3]: 39 G/DL
- MEAN CORPUSCULAR VOLUME [3]: 63.4 fL
- MONOCYTE [3]: 2%
- NEUTROPHIL [3]: 6.33%
- NUCLEATED RED BLOOD CELLS [3]: 0 /100WBC
- PLATELET COUNT [3]: 1112 x10E3/uL
- ALANINE AMINOTRANSFERASE [3]: 51.33 u/L
- ALBUMIN [3]: 4.23 G/DL
- ALKALINE PHOSPHATASE [3]: 271 u/L
- BLOOD UREA NITROGEN [3]: 18.33 mg/dL
- CARBON DIOXIDE [3]: 29.67 mmol/L
- CHLORIDE [3]: 97.67 MEQ/L
- CHOLESTEROL [3]: 84.33 mg/dL
- CREATINE PHOSPHOKINASE [3]: 323.67 u/L
- CREATININE [3]: 0.19 mg/dL
- GLUCOSE [3]: 192 mg/dL
- LACTATE DEHYDROGENASE [3]: 111.33 u/L
- LIPASE [3]: 10.33 u/L
- PHOSPHORUS [3]: 11.37 mg/dL
- POTASSIUM [3]: 5.46 MEQ/L
- SODIUM [3]: 143.47 MEQ/L
- TOTAL BILIRUBIN [3]: 0.17 mg/dL
- TOTAL PROTEIN [3]: 5.9 G/DL
- ABSOLUTE BASOPHIL (60 mg/kg, 120 h, dose level High, time 5 day): 0 CELLS/uL

— ChEMBL document CHEMBL3885881, “DrugMatrix”
